Measurements from ChEMBL document CHEMBL5055675, “Apoptosis Inducing 1,3,4-Oxadiazole Conjugates of Capsaicin: Their In Vitro Antiproliferative and In Silico Studies” (ACS Med Chem Lett, 2021).
pIC50: −log10 of the molar value.

Tests used:
Assay type in all cases: functional
SN12C = experiment: Antiproliferative activity against human SN12C cells assessed as cell growth at 10 uM incubated for 48 hrs by sulforhodamine B assay relative to control; details: read-out: Activity
OVCAR-8 = experiment: Antiproliferative activity against human OVCAR-8 cells assessed as cell growth at 10 uM incubated for 48 hrs by sulforhodamine B assay relative to control; details: read-out: Activity
K562 = experiment: Antiproliferative activity against human K562 cells assessed as cell growth at 10 uM incubated for 48 hrs by sulforhodamine B assay relative to control; details: read-out: Activity
A498 = experiment: Antiproliferative activity against human A498 cells assessed as cell growth at 10 uM incubated for 48 hrs by sulforhodamine B assay relative to control; details: read-out: Activity
ACHN = experiment: Antiproliferative activity against human ACHN cells assessed as cell growth at 10 uM incubated for 48 hrs by sulforhodamine B assay relative to control; details: read-out: Activity
SK-MEL-2 = experiment: Antiproliferative activity against human SK-MEL-2 cells assessed as cell growth at 10 uM incubated for 48 hrs by sulforhodamine B assay relative to control; details: read-out: Activity
UACC-257 = experiment: Antiproliferative activity against human UACC-257 cells assessed as cell growth at 10 uM incubated for 48 hrs by sulforhodamine B assay relative to control; details: read-out: Activity
MDA-MB-468 = experiment: Antiproliferative activity against human MDA-MB-468 cells assessed as cell growth at 10 uM incubated for 48 hrs by sulforhodamine B assay relative to control; details: read-out: Activity
HT-29 = experiment: Antiproliferative activity against human HT-29 cells assessed as cell growth at 10 uM incubated for 48 hrs by sulforhodamine B assay relative to control; details: read-out: Activity
SK-OV-3 = experiment: Antiproliferative activity against human SK-OV-3 cells assessed as cell growth at 10 uM incubated for 48 hrs by sulforhodamine B assay relative to control; details: read-out: Activity
COLO 205 = experiment: Antiproliferative activity against human COLO 205 cells assessed as cell growth at 10 uM incubated for 48 hrs by sulforhodamine B assay relative to control; details: read-out: Activity
MOLT-4 = experiment: Antiproliferative activity against human MOLT-4 cells assessed as cell growth at 10 uM incubated for 48 hrs by sulforhodamine B assay relative to control; details: read-out: Activity
HL-60(TB) = experiment: Antiproliferative activity against human HL-60 (TB) cells assessed as cell growth at 10 uM incubated for 48 hrs by sulforhodamine B assay relative to control; details: read-out: Activity
UACC-62 = experiment: Antiproliferative activity against human UACC-62 cells assessed as cell growth at 10 uM incubated for 48 hrs by sulforhodamine B assay relative to control; details: read-out: Activity
SF-539 = experiment: Antiproliferative activity against human SF-539 cells assessed as cell growth at 10 uM incubated for 48 hrs by sulforhodamine B assay relative to control; details: read-out: Activity
HCT-116 [1] = experiment: Antiproliferative activity against human HCT-116 cells assessed as cell growth inhibition measured after 72 hrs by crystal violet staining based assay; details: HCT-116, 72 h
DU-145 = experiment: Antiproliferative activity against human DU-145 cells assessed as cell growth at 10 uM incubated for 48 hrs by sulforhodamine B assay relative to control; details: read-out: Activity
TK-10 = experiment: Antiproliferative activity against human TK-10 cells assessed as cell growth at 10 uM incubated for 48 hrs by sulforhodamine B assay relative to control; details: read-out: Activity
SW-620 = experiment: Antiproliferative activity against human SW-620 cells assessed as cell growth at 10 uM incubated for 48 hrs by sulforhodamine B assay relative to control; details: read-out: Activity
SF-295 = experiment: Antiproliferative activity against human SF-295 cells assessed as cell growth at 10 uM incubated for 48 hrs by sulforhodamine B assay relative to control; details: read-out: Activity
SK-MEL-5 = experiment: Antiproliferative activity against human SK-MEL-5 cells assessed as cell growth at 10 uM incubated for 48 hrs by sulforhodamine B assay relative to control; details: read-out: Activity
U-251 = experiment: Antiproliferative activity against human U-251 cells assessed as cell growth at 10 uM incubated for 48 hrs by sulforhodamine B assay relative to control; details: read-out: Activity
SNB-75 = experiment: Antiproliferative activity against human SNB-75 cells assessed as cell growth at 10 uM incubated for 48 hrs by sulforhodamine B assay relative to control; details: read-out: Activity
MCF7 = experiment: Antiproliferative activity against human MCF7 cells assessed as cell growth at 10 uM incubated for 48 hrs by sulforhodamine B assay relative to control; details: read-out: Activity
UO-31 = experiment: Antiproliferative activity against human UO-31 cells assessed as cell growth at 10 uM incubated for 48 hrs by sulforhodamine B assay relative to control; details: read-out: Activity
OVCAR-5 = experiment: Antiproliferative activity against human OVCAR-5 cells assessed as cell growth at 10 uM incubated for 48 hrs by sulforhodamine B assay relative to control; details: read-out: Activity
SK-MEL-28 = experiment: Antiproliferative activity against human SK-MEL-28 cells assessed as cell growth at 10 uM incubated for 48 hrs by sulforhodamine B assay relative to control; details: read-out: Activity
SR = experiment: Antiproliferative activity against human SR cells assessed as cell growth at 10 uM incubated for 48 hrs by sulforhodamine B assay relative to control; details: read-out: Activity
NCI/ADR-RES = experiment: Antiproliferative activity against human NCI/ADR-RES cells assessed as cell growth at 10 uM incubated for 48 hrs by sulforhodamine B assay relative to control; details: read-out: Activity
HCC 2998 = experiment: Antiproliferative activity against human HCC 2998 cells assessed as cell growth at 10 uM incubated for 48 hrs by sulforhodamine B assay relative to control; details: read-out: Activity
SF-268 = experiment: Antiproliferative activity against human SF-268 cells assessed as cell growth at 10 uM incubated for 48 hrs by sulforhodamine B assay relative to control; details: read-out: Activity
HCT-116 [2] = experiment: Antiproliferative activity against human HCT-116 cells assessed as cell growth at 10 uM incubated for 48 hrs by sulforhodamine B assay relative to control; details: read-out: Activity
T47D = experiment: Antiproliferative activity against human T47D cells assessed as cell growth at 10 uM incubated for 48 hrs by sulforhodamine B assay relative to control; details: read-out: Activity
NCI-H322M = experiment: Antiproliferative activity against human NCI-H322M cells assessed as cell growth at 10 uM incubated for 48 hrs by sulforhodamine B assay relative to control; details: read-out: Activity
KM12 = experiment: Antiproliferative activity against human KM12 cells assessed as cell growth at 10 uM incubated for 48 hrs by sulforhodamine B assay relative to control; details: read-out: Activity
SNB-19 = experiment: Antiproliferative activity against human SNB-19 cells assessed as cell growth at 10 uM incubated for 48 hrs by sulforhodamine B assay relative to control; details: read-out: Activity
NCI-H226 = experiment: Antiproliferative activity against human NCI-H226 cells assessed as cell growth at 10 uM incubated for 48 hrs by sulforhodamine B assay relative to control; details: read-out: Activity
BT-549 = experiment: Antiproliferative activity against human BT-549 cells assessed as cell growth at 10 uM incubated for 48 hrs by sulforhodamine B assay relative to control; details: read-out: Activity
PC-3 = experiment: Antiproliferative activity against human PC-3 cells assessed as cell growth at 10 uM incubated for 48 hrs by sulforhodamine B assay relative to control; details: read-out: Activity
MDA-MB-435 = experiment: Antiproliferative activity against human MDA-MB-435 cells assessed as cell growth at 10 uM incubated for 48 hrs by sulforhodamine B assay relative to control; details: read-out: Activity

Structure (SMILES)	growth at 10 µM (SN12C) [%]	growth at 10 µM (OVCAR-8) [%]	growth at 10 µM (K562) [%]	growth at 10 µM (A498) [%]	growth at 10 µM (ACHN) [%]	growth at 10 µM (SK-MEL-2) [%]	growth at 10 µM (UACC-257) [%]	growth at 10 µM (MDA-MB-468) [%]	growth at 10 µM (HT-29) [%]	growth at 10 µM (SK-OV-3) [%]	growth at 10 µM (COLO 205) [%]	growth at 10 µM (MOLT-4) [%]	growth at 10 µM (HL-60(TB)) [%]	growth at 10 µM (UACC-62) [%]	growth at 10 µM (SF-539) [%]	growth at 10 µM (DU-145) [%]	growth at 10 µM (TK-10) [%]	growth at 10 µM (SW-620) [%]	growth at 10 µM (SF-295) [%]	growth at 10 µM (SK-MEL-5) [%]	also measured
COc1cc(CNC(=O)CCCC/C=C/C(C)C)ccc1OCc1nnc(Nc2ccc([N+](=O)[O-])cc2)o1	49	25	59.6	56.8	41.2	71.9	77.6	53.8	71.7	11.8	70.9	84.2	101	39.6	70.2	62	84.1	67.3	64.9	46.3	pIC50 (HCT-116 [1]): 5.07; growth at 10 µM (U-251): 48.6%; growth at 10 µM (SNB-75): 48.7%; growth at 10 µM (MCF7): 55.2%; growth at 10 µM (UO-31): 58.7%; growth at 10 µM (OVCAR-5): 101%; growth at 10 µM (SK-MEL-28): 78.9%; growth at 10 µM (SR): 64.2%; growth at 10 µM (NCI/ADR-RES): 79.6%; growth at 10 µM (HCC 2998): 83.6%; growth at 10 µM (SF-268): 79.7%; growth at 10 µM (HCT-116 [2]): 24.6%; growth at 10 µM (T47D): 48.6%; growth at 10 µM (NCI-H322M): 54.9%; growth at 10 µM (KM12): 71.7%; growth at 10 µM (SNB-19): 54%; growth at 10 µM (NCI-H226): 62.1%; growth at 10 µM (BT-549): 108%; growth at 10 µM (PC-3): 37.6%; growth at 10 µM (MDA-MB-435): 66.4%
COc1cc(CNC(=O)CCCC/C=C/C(C)C)ccc1OCc1nnc(SCCc2c[nH]c3ccccc23)o1	83.1	71.3	40.7	73.3	76.5	86.7	101	51.8	69.7	85.7	71.2	29.2	50.2	67.5	80.8	94.9	91.7	84.7	68.8	105	pIC50 (HCT-116 [1]): 4.87; growth at 10 µM (U-251): 80.5%; growth at 10 µM (SNB-75): 83.1%; growth at 10 µM (MCF7): 58.8%; growth at 10 µM (UO-31): 45%; growth at 10 µM (OVCAR-5): 102%; growth at 10 µM (SK-MEL-28): 104%; growth at 10 µM (SR): 49.3%; growth at 10 µM (NCI/ADR-RES): 56.5%; growth at 10 µM (HCC 2998): 98%; growth at 10 µM (SF-268): 78.9%; growth at 10 µM (HCT-116 [2]): 70%; growth at 10 µM (T47D): 43%; growth at 10 µM (NCI-H322M): 88.7%; growth at 10 µM (KM12): 73.3%; growth at 10 µM (SNB-19): 77%; growth at 10 µM (NCI-H226): 67.2%; growth at 10 µM (BT-549): 75%; growth at 10 µM (PC-3): 56.9%; growth at 10 µM (MDA-MB-435): 90.2%
COc1cc(CNC(=O)CCCC/C=C/C(C)C)ccc1OCc1nnc(Nc2cccc(Br)c2)o1	95.7	98	65	77.8	85.1	105	105	48.1	97.7	82.6	110	83.5	79.8	67.5	88.4	89.8	104	95.4	84.2	89.8	growth at 10 µM (U-251): 102%; growth at 10 µM (SNB-75): 83.5%; growth at 10 µM (MCF7): 83.7%; growth at 10 µM (UO-31): 64%; growth at 10 µM (OVCAR-5): 91.1%; growth at 10 µM (SK-MEL-28): 107%; growth at 10 µM (SR): 67.7%; growth at 10 µM (NCI/ADR-RES): 87%; growth at 10 µM (HCC 2998): 101%; growth at 10 µM (SF-268): 92.6%; growth at 10 µM (HCT-116 [2]): 67.6%; growth at 10 µM (T47D): 58.9%; growth at 10 µM (NCI-H322M): 98%; growth at 10 µM (KM12): 90.3%; growth at 10 µM (SNB-19): 99.5%; growth at 10 µM (NCI-H226): 50.4%; growth at 10 µM (BT-549): 76.4%; growth at 10 µM (PC-3): 87.9%; growth at 10 µM (MDA-MB-435): 101%
